Each structure is given as a SMILES string. Where two headings read alike, the source gives them in different places. Where only a bound is given, the exact number is not on record here.

Experiment [1] addresses T1, GST-tagged human ROCK1 catalytic domain 1-477 (Homo sapiens, UniProt Q13464).
T1 construct: human ROCK1 catalytic domain 1-477 from Carna Biosciences (cat #01-109); purchased Carna Biosciences 01-109; host or cells: baculovirus expression system
Nature of the experiment: Isolated Enzyme Assay, ROCK1 (LANCE Ultra ULight-CREBtide FRET). Type of experiment: biochemical. The following applies: 30 μM highest concentration tested, read-out: Results from Isolated Enzyme Assay IC50 (μM) ROCK1. Here is the method:
(§1) Exemplary compounds were tested for ability to inhibit Rho-associated protein kinase isoform 1 (ROCK1) and Rho-associated protein kinase isoform 2 (ROCK2). Assay procedures and results are described below.
(§2) Part I—Procedure for Determining ROCK Inhibition Ability of Test Compounds Using an Isolated Enzyme Assay
(§3) Protein constructs were purified from a baculovirus expression system. The peptide substrate was fluorescent LANCE® Ultra ULight-CREBtide: […] (PerkinElmer, # TRF0107-D). Kinase reactions were carried out in a 10 μL volume in 384-well plates: 50 nM ULight-CREBtide substrate, 2 nM constitutively active ROCK1 or ROCK2 kinase, and test compound in DMSO (or DMSO only for controls) were diluted into assay buffer containing 50 mM Tris-HCl (pH=7.5), 10 mM MgCl2, 1 mM EGTA, 0.01% Tween-20, and 2 mM DTT such that the final concentration of DMSO was 0.5%. After a 90 minute incubation at room temperature on a shaker table, the kinase reaction was stopped by addition of 10 mM EDTA, and phosphorylation of the substrate was detected by adding 1 nM LANCE® Ultra Europium-anti-phospho-CREB (ser133) antibody (PerkinElmer, # TRF0200-D) and incubating for 60 minutes on a shaker at room temperature. The fluorescence resonance energy transfer (FRET) signals were read and analyzed on an Envision™ 2103 Multilabel Reader (Perkin Elmer). The concentration of test compound required to inhibit substrate phosphorylation by 50% (the IC50) was calculated by non-linear regression using GraphPad PRIZM.
For orientation: Time-resolved FRET reads energy transfer from a long-lived donor to a nearby acceptor.

For experiment [2], the target named is T2, ROCK2 (Homo sapiens, UniProt O75116).
T2 construct: endogenous in cells; host or cells: HAP1 knockout cells
Nature of the experiment: Cell-Based Assay, ROCK2 (HAP1 knockout cells, phospho-MYPT1 Thr853 ELISA). The following applies: read-out: Results from Cell-Based Assay IC50 (μM) ROCK2. How it is done:
Part II—Procedure for Determining ROCK Inhibition Ability of Test Compounds Using a Cell-Base Assay
The Cell-Based Assay for determining ROCK inhibition ability of test compounds utilized a genetically modified HAP1 cell line engineered to eliminate expression of either ROCK1 or ROCK2. In the procedure, HAP1 knockout cells are grown in Iscove's Modified Dulbecco's Medium that is additionally supplemented with 10% fetal bovine and 1x antibiotic-antimycotic mixture. Cells are plated in 96 well tissue culture plates at 1×10^5 cells/well (100 μL, of cells at 1×10^6/mL). Test compounds are solubilized in DMSO and diluted into the same media used to grow the cells. A 100 μL, aliquot of each compound dilution in media is added to each well containing the HAP1 cells and incubated at 37° C. for 30 minutes. Following compound incubation, the cells are pelleted by centrifugation at 1800 rpm for 5 minutes at 4° C. Media is removed from the cell pellet and the cells lysed and de-salted. An 80 μL, aliquot of each cell lysate is added to a single well of a 96-well high binding ELISA plate which has been pre-coated with a MYPT1 capture antibody and incubated at 4° C. overnight. The following day the ELISA plate is washed 4× with 0.05% Tween-20 in PBS. After washing, an anti-phospho-MYPT1 (Thr853) antibody is added and allowed to bind for 1 hour at room temperature. The wash step is repeated, and then an anti-rabbit HRP detection antibody is added and allowed to incubate at room temperature for 1 hour. The wash step is then repeated and 100 μL/well 1-Step™ Ultra TMB substrate is added to the ELISA plate and allowed to develop for approximately 5 minutes. The reaction is stopped by addition of H2SO4. Absorbance is read at 450 OD. Data is analyzed using GraphPad Prism software to calculate the 50% inhibitory concentration of test compound (IC50).
(In general: An ELISA detects its analyte on a solid surface through an enzyme-linked reagent.)

Experiment [3] concerns the target T3, GST-tagged human ROCK2 catalytic domain 1-553 (Homo sapiens, UniProt O75116).
T3 construct: GST-tagged human ROCK2 catalytic domain 1-553 from Carna Biosciences (Cat #01-110); purchased Carna Biosciences 01-110; host or cells: baculovirus expression system
Briefly: Isolated Enzyme Assay, ROCK2 (LANCE Ultra ULight-CREBtide FRET). In kind it is biochemical. The note with it: 30 μM highest concentration tested, read-out: Results from Isolated Enzyme Assay IC50 (μM) ROCK2. How it is done: as §1, §2, §3

Setting [4] is: phospho-MYPT1, 30 μM highest concentration tested.

T3 sequence (O75116 1-553): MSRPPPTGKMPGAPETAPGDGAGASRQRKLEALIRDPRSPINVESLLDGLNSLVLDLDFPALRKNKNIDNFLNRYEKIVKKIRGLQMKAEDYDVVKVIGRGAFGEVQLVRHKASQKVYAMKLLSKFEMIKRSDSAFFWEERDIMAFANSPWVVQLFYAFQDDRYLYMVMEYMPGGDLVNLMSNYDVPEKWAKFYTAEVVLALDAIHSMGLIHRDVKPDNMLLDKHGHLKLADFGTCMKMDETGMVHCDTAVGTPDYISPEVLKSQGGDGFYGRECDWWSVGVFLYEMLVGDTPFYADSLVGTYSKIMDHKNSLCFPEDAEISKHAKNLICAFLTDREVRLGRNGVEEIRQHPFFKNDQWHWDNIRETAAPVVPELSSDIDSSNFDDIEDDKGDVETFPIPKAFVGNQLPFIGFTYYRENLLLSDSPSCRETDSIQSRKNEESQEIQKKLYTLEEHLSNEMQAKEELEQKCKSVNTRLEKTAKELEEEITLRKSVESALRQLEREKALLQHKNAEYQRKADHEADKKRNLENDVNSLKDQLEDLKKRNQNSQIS
T1 sequence (Q13464 1-477): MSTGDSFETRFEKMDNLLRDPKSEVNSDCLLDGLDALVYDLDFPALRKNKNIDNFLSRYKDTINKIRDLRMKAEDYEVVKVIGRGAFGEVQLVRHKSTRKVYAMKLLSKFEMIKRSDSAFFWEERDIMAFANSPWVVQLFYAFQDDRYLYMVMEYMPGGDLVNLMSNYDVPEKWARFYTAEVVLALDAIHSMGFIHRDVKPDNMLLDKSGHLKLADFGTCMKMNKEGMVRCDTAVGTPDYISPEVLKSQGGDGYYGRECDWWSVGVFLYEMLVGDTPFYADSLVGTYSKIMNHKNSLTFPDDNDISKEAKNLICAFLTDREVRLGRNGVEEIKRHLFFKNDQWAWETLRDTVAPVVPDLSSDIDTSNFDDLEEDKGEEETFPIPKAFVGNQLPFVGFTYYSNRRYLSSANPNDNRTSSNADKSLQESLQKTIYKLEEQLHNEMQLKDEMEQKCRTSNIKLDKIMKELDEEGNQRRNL
T2 sequence (O75116 whole entry): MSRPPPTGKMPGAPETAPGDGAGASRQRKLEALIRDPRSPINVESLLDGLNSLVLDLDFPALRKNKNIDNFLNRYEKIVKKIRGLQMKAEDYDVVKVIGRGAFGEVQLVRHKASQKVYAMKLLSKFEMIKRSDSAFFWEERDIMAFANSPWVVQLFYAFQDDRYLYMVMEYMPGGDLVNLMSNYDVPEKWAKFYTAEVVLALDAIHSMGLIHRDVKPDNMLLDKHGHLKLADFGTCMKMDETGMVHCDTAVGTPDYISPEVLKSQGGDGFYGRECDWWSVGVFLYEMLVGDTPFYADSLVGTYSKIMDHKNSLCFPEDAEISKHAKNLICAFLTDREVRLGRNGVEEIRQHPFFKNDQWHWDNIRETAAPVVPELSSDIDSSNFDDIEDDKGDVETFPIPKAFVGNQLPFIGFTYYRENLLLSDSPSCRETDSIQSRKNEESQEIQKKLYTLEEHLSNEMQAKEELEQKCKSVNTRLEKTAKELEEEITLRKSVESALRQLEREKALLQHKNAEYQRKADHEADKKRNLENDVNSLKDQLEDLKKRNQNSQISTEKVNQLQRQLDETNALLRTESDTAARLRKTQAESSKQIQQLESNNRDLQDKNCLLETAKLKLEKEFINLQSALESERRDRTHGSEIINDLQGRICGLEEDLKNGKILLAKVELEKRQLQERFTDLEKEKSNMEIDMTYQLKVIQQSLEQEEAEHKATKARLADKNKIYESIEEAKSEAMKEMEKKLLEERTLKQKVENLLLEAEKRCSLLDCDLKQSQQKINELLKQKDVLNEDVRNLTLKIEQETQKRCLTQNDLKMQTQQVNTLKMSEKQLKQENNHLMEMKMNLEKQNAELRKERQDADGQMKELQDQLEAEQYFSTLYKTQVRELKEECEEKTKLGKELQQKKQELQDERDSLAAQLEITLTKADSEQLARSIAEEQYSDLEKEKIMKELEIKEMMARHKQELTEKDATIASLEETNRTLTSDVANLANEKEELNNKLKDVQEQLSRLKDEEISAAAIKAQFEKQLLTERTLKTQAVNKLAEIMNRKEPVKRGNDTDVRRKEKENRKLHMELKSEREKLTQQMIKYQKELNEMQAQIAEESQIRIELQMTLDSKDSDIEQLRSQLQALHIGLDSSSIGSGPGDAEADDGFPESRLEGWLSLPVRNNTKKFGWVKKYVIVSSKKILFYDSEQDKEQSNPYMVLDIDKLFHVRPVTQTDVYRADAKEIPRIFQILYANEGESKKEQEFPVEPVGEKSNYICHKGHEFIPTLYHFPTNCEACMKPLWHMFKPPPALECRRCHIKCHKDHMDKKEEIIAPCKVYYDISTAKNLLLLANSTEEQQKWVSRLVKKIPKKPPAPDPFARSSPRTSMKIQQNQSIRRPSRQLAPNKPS

Regarding `Cn1cc(CC(=O)Nc2cccc(-c3nsc(Nc4ccc5[nH]ncc5c4Cl)n3)c2)cn1` [Compound A-20], the IC50 in experiment [1] (isolated enzyme), in experiment [2] (setting [4]) and in experiment [3] (isolated enzyme) was < 1 µM in each case.
Regarding `Cc1nn(C)cc1C(=O)Nc1cccc(-c2nsc(Nc3ccc4[nH]ncc4c3Cl)n2)c1` [Compound A-15], the IC50 in experiment [1] (isolated enzyme), in experiment [2] (setting [4]) and in experiment [3] (isolated enzyme) was < 1 µM each time.
With `Cn1cncc1C(=O)Nc1cccc(-c2nsc(Nc3ccc4[nH]ncc4c3Cl)n2)c1` [Compound A-23], the concentration for half-maximal inhibition (IC50) in experiment [1] (isolated enzyme), in experiment [2] (setting [4]) and in experiment [3] (isolated enzyme) was < 1 µM each time.
Regarding `COc1ncc(-c2nsc(Nc3ccc4[nH]ncc4c3Cl)n2)cc1NC(=O)c1ccnn1C` [IV-106], the results for the IC50 in experiment [1] (isolated enzyme assay), in experiment [2] (numeric bound) and in experiment [3] (isolated enzyme assay) were > 30 µM, > 10 µM and > 30 µM, respectively.
On to `Cc1coc(-c2cc(CO)cc(-c3nsc(Nc4ccc5[nH]ncc5c4Cl)n3)c2)n1` [IV-68], for which the IC50 in experiment [1] (isolated enzyme assay), in experiment [2] (class symbols) and in experiment [3] (isolated enzyme assay) was < 1 µM throughout.
As to `Cc1cc(NC(=O)c2cncs2)cc(-c2nsc(Nc3ccc4[nH]ncc4c3Cl)n2)n1` [IV-20], the IC50 – broadly, the concentration needed to halve the response being measured – in experiment [1] (isolated enzyme assay) is < 1 µM; in experiment [2] (numeric bound), > 10 µM; in experiment [3] (isolated enzyme assay) it was < 1 µM.
With `Cc1ncc(-c2nsc(Nc3ccc4[nH]ncc4c3Cl)n2)cc1NC(=O)c1ccnn1C` [IV-69], the half-inhibitory concentration (IC50) is 1 to 15 µM in experiment [1] (isolated enzyme assay), > 10 µM in experiment [2] (numeric bound) and < 1 µM in experiment [3] (isolated enzyme assay).
With `Cn1cnc(C(=O)Nc2cc(-c3nsc(Nc4ccc5[nH]ncc5c4Cl)n3)ccn2)c1` [IV-29], the IC50 in experiment [1] (isolated enzyme assay) was > 30 µM; in experiment [2] (numeric bound), > 10 µM; in experiment [3] (isolated enzyme assay), < 1 µM.
Turning to `Cc1nc(C)c(C(=O)Nc2cccc(-c3nsc(Nc4ccc5[nH]ncc5c4Cl)n3)c2)s1` [Compound A-11], the IC50 in experiment [1] (isolated enzyme), in experiment [2] (setting [4]) and in experiment [3] (isolated enzyme) was < 1 µM each time.
Turning to `O=C(Nc1cccc(-c2nsc(Nc3ccc4[nH]ncc4c3Cl)n2)c1)c1nc(O)co1` [IV-79], the figures for the IC50 in experiment [1] (isolated enzyme assay), in experiment [2] (numeric bound) and in experiment [3] (isolated enzyme assay) were < 1 µM, > 10 µM and < 1 µM, respectively.
Consider `O=C(NC(CO)CO)c1cc(-c2nsc(Nc3ccc4[nH]ncc4c3Cl)n2)ccc1F` [IV-21], for which the IC50 in experiment [1] (isolated enzyme assay) was < 1 µM; in experiment [2] (class symbols) it was 1 to 15 µM; in experiment [3] (isolated enzyme assay) it was < 1 µM.
For `COc1ccc(C(=O)Nc2cc(C)nc(-c3nsc(Nc4ccc5[nH]ncc5c4Cl)n3)c2)cc1` [IV-43], the IC50 is > 30 µM in experiment [1] (isolated enzyme assay), 1 to 15 µM in experiment [2] (class symbols) and > 30 µM in experiment [3] (isolated enzyme assay).
In the case of `O=C(Nc1cccc(-c2nsc(Nc3ccc4[nH]ncc4c3Cl)n2)c1)c1cocn1` [Compound A-21], the IC50 in experiment [1] (isolated enzyme), in experiment [2] (setting [4]) and in experiment [3] (isolated enzyme) was < 1 µM each time.
Take `Cn1cnc(C(=O)Nc2cccc(-c3nsc(Nc4ccc5[nH]ncc5c4Cl)n3)c2)c1` [Compound A-22]: the half-inhibitory concentration (IC50) in experiment [1] (isolated enzyme), in experiment [2] (setting [4]) and in experiment [3] (isolated enzyme) was < 1 µM throughout.
`COc1cccc(C(=O)Nc2cc(-c3nsc(Nc4ccc5[nH]ncc5c4Cl)n3)ccn2)c1` [IV-64]: the IC50 in experiment [1] (isolated enzyme assay) is > 30 µM; in experiment [2] (class symbols) it was < 1 µM; in experiment [3] (isolated enzyme assay) it was > 30 µM.
In the case of `COc1cccc(C(=O)Nc2cncc(-c3nsc(Nc4ccc5[nH]ncc5c4Cl)n3)c2)c1` [IV-101], the concentration for half-maximal inhibition (IC50) is > 30 µM in experiment [1] (isolated enzyme assay), > 10 µM in experiment [2] (numeric bound) and > 30 µM in experiment [3] (isolated enzyme assay).
As for `Cc1coc(-c2cncc(-c3nsc(Nc4ccc5[nH]ncc5c4Cl)n3)c2)n1` [IV-97], the IC50 in experiment [1] (isolated enzyme assay) was > 30 µM; in experiment [2] (numeric bound), > 10 µM; in experiment [3] (isolated enzyme assay), > 30 µM.
For `COc1ncc(C(=O)Nc2cc(-c3nsc(Nc4ccc5[nH]ncc5c4Cl)n3)ccn2)cn1` [IV-27], the IC50 in experiment [1] (isolated enzyme assay) was > 30 µM; in experiment [2] (numeric bound), > 10 µM; in experiment [3] (isolated enzyme assay) it was < 1 µM.
Consider `COc1ccc(C(=O)Nc2cc(-c3nsc(Nc4ccc5[nH]ncc5c4Cl)n3)ccn2)cc1` [IV-108], for which the IC50 is > 30 µM in experiment [1] (isolated enzyme assay), 1 to 15 µM in experiment [2] (class symbols) and < 1 µM in experiment [3] (isolated enzyme assay).
As to `Cn1nccc1C(=O)Nc1cccc(-c2nsc(Nc3ccc4[nH]ncc4c3C#N)n2)c1` [IV-33], the IC50 is < 1 µM in experiment [1] (isolated enzyme assay), > 10 µM in experiment [2] (numeric bound) and < 1 µM in experiment [3] (isolated enzyme assay).
With `Cn1nc(C(=O)Nc2cccc(-c3nsc(Nc4ccc5[nH]ncc5c4Cl)n3)c2)cc1C(F)(F)F` [Compound A-13], the IC50 in experiment [1] (isolated enzyme), in experiment [2] (setting [4]) and in experiment [3] (isolated enzyme) was < 1 µM throughout.
On to `Cn1ccnc1-c1cccc(-c2nsc(Nc3ccc4[nH]ncc4c3Cl)n2)c1` [IV-88], for which the IC50 in experiment [1] (isolated enzyme assay) is < 1 µM; in experiment [2] (class symbols), 1 to 15 µM; in experiment [3] (isolated enzyme assay) it was < 1 µM.
With `CC1(C)CN(c2cccc(-c3nsc(Nc4ccc5[nH]ncc5c4C#N)n3)c2)C(=O)O1` [IV-34], the IC50 in experiment [1] (isolated enzyme assay) is < 1 µM; in experiment [2] (class symbols) it was 1 to 15 µM; in experiment [3] (isolated enzyme assay), < 1 µM.
With `O=C(Nc1cc(-c2nsc(Nc3ccc4[nH]ncc4c3Cl)n2)ccn1)N1CCOCC1` [Compound A-19], the IC50 in experiment [1] (isolated enzyme), in experiment [2] (setting [4]) and in experiment [3] (isolated enzyme) was < 1 µM in each case.
As to `Cn1cc(-c2nsc(Nc3ccc4[nH]ncc4c3Cl)n2)cc(NC(=O)c2ccccc2)c1=O` [IV-39], the results for the IC50 in experiment [1] (isolated enzyme assay), in experiment [2] (class symbols) and in experiment [3] (isolated enzyme assay) were 1 to 15 µM, < 1 µM and < 1 µM, respectively.
With `O=C(NC1CCC1)c1cc(-c2nsc(Nc3ccc4[nH]ncc4c3Cl)n2)ccc1F` [IV-30], the IC50 in experiment [1] (isolated enzyme assay), in experiment [2] (class symbols) and in experiment [3] (isolated enzyme assay) was < 1 µM throughout.
Turning to `CC(=O)Nc1cc(-c2nsc(Nc3ccc4[nH]ncc4c3Cl)n2)cn(C)c1=O` [IV-45], the IC50 was < 1 µM in experiment [1] (isolated enzyme assay), > 10 µM in experiment [2] (numeric bound) and < 1 µM in experiment [3] (isolated enzyme assay).
As to `Cc1cc(NC(=O)c2cnco2)cc(-c2nsc(Nc3ccc4[nH]ncc4c3Cl)n2)n1` [IV-25], the 50% inhibitory concentration (IC50) is < 1 µM in experiment [1] (isolated enzyme assay), > 10 µM in experiment [2] (numeric bound) and < 1 µM in experiment [3] (isolated enzyme assay).
For the molecule `Cc1coc(-c2cccc(-c3nsc(Nc4ccc5[nH]ncc5c4Cl)n3)c2)n1` [Compound A-10], the IC50 in experiment [1] (isolated enzyme), in experiment [2] (setting [4]) and in experiment [3] (isolated enzyme) was < 1 µM throughout.
Take `O=C(Nc1cccc(-c2nsc(Nc3ccc4[nH]ncc4c3Cl)n2)c1)c1cnco1` [Compound A-17]: the IC50 in experiment [1] (isolated enzyme), in experiment [2] (setting [4]) and in experiment [3] (isolated enzyme) was < 1 µM in each case.
For `O=C(Nc1cccc(-c2nsc(Nc3ccc4[nH]ncc4c3Cl)n2)c1)c1cnc[nH]1` [Compound A-14], the IC50 in experiment [1] (isolated enzyme), in experiment [2] (setting [4]) and in experiment [3] (isolated enzyme) was < 1 µM each time.
As to `O=C(Nc1cncc(-c2nsc(Nc3ccc4[nH]ncc4c3Cl)n2)c1)c1cnco1` [IV-24], the IC50 in experiment [1] (isolated enzyme assay) was > 30 µM; in experiment [2] (numeric bound), > 10 µM; in experiment [3] (isolated enzyme assay), < 1 µM.
In the case of `Cn1nccc1C(=O)Nc1cc(-c2nsc(Nc3ccc4[nH]ncc4c3Cl)n2)ccn1` [Compound A-9], the IC50 in experiment [1] (isolated enzyme) was > 30 µM; in experiment [2] (setting [4]), < 1 µM; in experiment [3] (isolated enzyme) it was < 1 µM.

(Values after patent US10556898B2, “Indazolyl-1,2,4-thiadiazolamines and related compounds for inhibition of Rho-associated protein kinase and the treatment of disease” (Lycera Corporation, priority 2016, dated 2020).)
